Patent US9523693B2, “Methods for determining ligand binding to a target protein using a thermal shift assay” (Biotarget Engagement Interest Group AB, priority 2011, dated 2016)

Legend:
p38α [1] = target: T1, p38α (Homo sapiens, UniProt Q16539); assay: CETSA melting curve in HL-60 cells; format: cell-based; details: for apparent Tagg value (average±s.d.): 20 μM compound
T1 construct: host or cells: HL-60
Description: HL60 cells were expanded in cell culture medium to about 2 million cells per ml, where approximately 120 million cells were required to determine four melting curves. 15 ml of the 2 million HL60 cells/ml of suspension were added to four separate T75 flasks. […] The same volume of DMSO was added to the remaining flask as a control. The cell suspensions were mixed gently by pipetting. […] The cell suspension was then collected and cells were transferred to 15 ml conical tubes. Cell numbers were counted and cell viability assessed. The conical tubes were then centrifuged at 300 g for 3 minutes at room temperature to pellet the cells and the culture medium was discarded.
Cell pellets were then resuspended with 15 ml PBS and centrifuged for 3 minutes at 300 g at room temperature. 1 ml of PBS supplemented with protease inhibitors was added to each tube and the pellet resuspended. Each cell suspension was distributed into ten different 0.2 ml PCR tubes with 100 μl of cell suspension in each tube, with each of the ten tubes to be heated at a different temperature.
Immediately after hating, the tubes were removed and incubated at room temperature for 3 minutes. The samples were then snap-frozen.
The tubes were vortexed after being thawed and the cell lysates kept on ice after the last thawing. The cell lysates were then centrifuged at 20000 g for 20 minutes at 4° C. to pellet the cell debris. Finally, 90 μl of lysate was then transferred to a new tube for analysis.
Analysis was carried out using the alphascreen format. […] 4 μl of each solution was transferred from the PCR tubes to a separate well of a 384-well ProxiPlate. 5 μl of acceptor beads were added and the plate sealed with a Thermowell plate seal and agitated for 5 minutes at 500 rpm. The plate was then incubated for 2 hours at room temperature. 2 μl of donor beads were then added an the plate sealed and centrifuged at 100 g at room temperature for 10 seconds. The plate was then agitated for 5 minutes at 500 rpm. The plate was incubated at room temperature for at least 2 hours and chemiluminescence read using an Envision plate reader. […]

p38α [2] = target: T1, p38α; assay: Homogeneous AlphaScreen-based CETSA screen in HL-60 cells; format: cell-based; details: both screen concentrations, 10 and 50 μM, 50° C. 3 min
Description: HL-60 cells were expanded in cell culture medium to a density of approximately 1.5-2 million cells/ml. The cell suspension was collected and the cells transferred to 15 ml conical tubes. The tubes were then centrifuged at 300 g for 3 mins at room temperature and the media was discarded. The cell pellet was resuspended in media to a cell density of about 30 million cells/ml. […] The plates are sealed and stored. The Echo 550 acoustic liquid dispenser was used to place 20 nl of the 10 mM DMSO stock solution in each well of four separate Twin tec PCR plates in columns 1-11. […] The plates were shaken every 10 mins.
The plates were placed in a thermal cycler and heated for 3 mins at 50° C. and were then removed and placed in an aluminium block for 3 mins at room temperature.
140 μl of 1× PerkinElmer lysis buffer was added to all wells and the wells were mixed. 4 μl of the samples were transferred to quadrant one of the 384-well ProxiPlate. This was done for all 96-well plates. […] The chemiluminescence was read with a Envision plate reader and evaluated using data processing software as described previously.
The feasibility of applying the homogeneous assay for screen purposes was assessed by testing the homogeneous assay protocol to determine how this responds to the presence of a small set of test compounds taken from a diversity library. […]

[3] = target: T2, human soluble PIK3C3 protein (Homo sapiens, UniProt Q8NEB9); assay: Thermal shift (lysis/filtration blot) in E. coli cells overexpressing PIK3C3 construct; format: cell-based; details: 1 mM Compound 15e or 500 μM Wortmannin, without ligand ca +55°
T2 construct: expressed in transfected cells; host or cells: E. coli
T2 sequence (Q8NEB9 whole entry): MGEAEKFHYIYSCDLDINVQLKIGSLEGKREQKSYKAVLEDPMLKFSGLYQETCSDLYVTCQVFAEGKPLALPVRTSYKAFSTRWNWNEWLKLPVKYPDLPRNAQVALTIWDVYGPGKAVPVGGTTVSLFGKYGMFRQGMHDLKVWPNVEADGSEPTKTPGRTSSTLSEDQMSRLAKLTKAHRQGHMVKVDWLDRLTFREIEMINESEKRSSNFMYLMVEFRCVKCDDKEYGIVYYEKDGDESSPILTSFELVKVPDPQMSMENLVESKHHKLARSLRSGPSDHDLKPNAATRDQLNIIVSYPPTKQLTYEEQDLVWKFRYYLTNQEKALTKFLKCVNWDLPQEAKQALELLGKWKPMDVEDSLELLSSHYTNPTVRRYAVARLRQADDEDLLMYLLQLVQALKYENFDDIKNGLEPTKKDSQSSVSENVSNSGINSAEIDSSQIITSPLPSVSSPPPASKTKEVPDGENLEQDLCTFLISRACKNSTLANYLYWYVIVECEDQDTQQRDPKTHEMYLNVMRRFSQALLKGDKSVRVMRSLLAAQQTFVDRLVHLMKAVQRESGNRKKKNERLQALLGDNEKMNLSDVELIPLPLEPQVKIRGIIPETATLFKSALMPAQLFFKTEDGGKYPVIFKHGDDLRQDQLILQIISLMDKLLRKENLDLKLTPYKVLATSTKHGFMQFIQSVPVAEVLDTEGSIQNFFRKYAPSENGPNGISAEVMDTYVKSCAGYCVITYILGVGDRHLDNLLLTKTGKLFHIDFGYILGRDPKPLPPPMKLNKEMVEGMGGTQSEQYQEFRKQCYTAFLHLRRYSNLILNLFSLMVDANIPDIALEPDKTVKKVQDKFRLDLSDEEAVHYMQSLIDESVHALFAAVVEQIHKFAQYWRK
From the text: An expression construct of human soluble PIK3C3 protein in an expression vector with N-terminal His-tag was used to investigate a possible increase in melting temperature of the PIK3C3 construct after addition and binding of either of two PIK3C3 specific inhibitors; Wortmannin and Compound 15e. After treatment with or without one of the two inhibitors the cells expressing the PIK3C3 constructs were exposed to a panel of increasing temperatures and after each temperature step the cells expressing the proteins were spotted onto a “lysis/filtration sandwich” soaked in lysis buffer. By using this lysis/filtration step on the “lysis/filtration sandwich” the soluble protein (up to the construct's specific melting temperature) could be detected on a capturing nitrocellulose membrane as dark spots, whereas precipitated protein (i.e., above its specific melting temperature) was not able to pass through the filter membrane and could therefore not be detected. Melting temperatures of constructs treated with Compound 15e or Wortmannin were compared with those of untreated samples. […]

p38α [4] = target: T1, p38α; assay: Isothermal dose-response fingerprint (ITDRF CETSA) in HL-60 cells; format: cell-based; details: HL-60 cells heated at 50° C.; western blot and AlphaScreen
Description: Thus, in this method, HL-60 cells were expanded in cell culture medium to a cell density of 1-2 million cells/ml using standard cell culture. The cell suspension was collected and transferred to 15 ml conical tubes. The conical tubes were centrifuged at 300 g for 3 minutes at room temperature and the medium discarded. The cell pellet was resuspended in fresh media to provide a cell density of approximately 40 million cells/ml. […] 100 DMSO was placed in columns 2-12. The stock solutions were serially diluted by transferring 50 from columns 1 to 2, mixing and then by continuing this process one column at a time until column 11, where a final 50 is removed and discarded. Column 12 acted as a control. A second plate was prepared as a backup by splitting the serial dilutions into the second plate. All the serially diluted solutions were diluted 50 fold by adding cell culture media. 5 μl of all diluted compound solutions were then transferred to a Twin.tec PCR plate. […] The plate was shaken every 10 minutes.
The PCR plate was then incubated in a thermal cycler (Techne) and heated for 3 minutes at 50° C. The plate was then placed in an aluminium block for 3 minutes to ensure consistent cooling.
Detection was then carried out using the AlphaScreen method. […] The Luminescence was read using an Envision plate reader and data software (e.g. GraphPad Orism) was used to evaluate the luminescence data. […]

[5] = target: V600E variant B-raf protein (Homo sapiens, UniProt P15056, V600E); details: A375 lysate
Chain of V600E variant B-raf protein (P15056 whole entry V600E): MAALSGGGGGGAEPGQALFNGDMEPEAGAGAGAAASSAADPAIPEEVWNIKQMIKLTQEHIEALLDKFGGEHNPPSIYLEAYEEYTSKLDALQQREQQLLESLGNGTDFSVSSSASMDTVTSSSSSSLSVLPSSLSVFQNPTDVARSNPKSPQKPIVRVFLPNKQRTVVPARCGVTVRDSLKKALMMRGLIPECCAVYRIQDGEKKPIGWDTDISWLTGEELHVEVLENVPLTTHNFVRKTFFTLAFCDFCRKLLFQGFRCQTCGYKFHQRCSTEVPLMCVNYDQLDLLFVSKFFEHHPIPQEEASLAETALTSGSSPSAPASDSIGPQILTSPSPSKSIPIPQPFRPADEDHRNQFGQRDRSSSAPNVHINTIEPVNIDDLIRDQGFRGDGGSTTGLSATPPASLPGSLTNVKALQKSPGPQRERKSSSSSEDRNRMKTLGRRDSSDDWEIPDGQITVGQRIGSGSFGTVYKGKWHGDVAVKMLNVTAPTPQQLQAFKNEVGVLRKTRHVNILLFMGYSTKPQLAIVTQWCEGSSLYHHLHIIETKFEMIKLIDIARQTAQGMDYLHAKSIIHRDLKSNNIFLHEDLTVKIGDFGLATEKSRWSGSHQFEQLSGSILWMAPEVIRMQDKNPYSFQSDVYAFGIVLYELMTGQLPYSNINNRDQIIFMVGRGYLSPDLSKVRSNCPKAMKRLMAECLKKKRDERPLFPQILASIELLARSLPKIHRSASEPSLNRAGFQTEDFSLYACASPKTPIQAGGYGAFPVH
Description: (§1) Lysate was prepared from cultured human A375 cells containing the V600E substitution in B-raf and K562, containing the wild type version thereof. Cells were disrupted on ice in hypotonic buffer and with homogenisation. The suspensions were freeze-thawed multiple times and all insoluble aggregates and cell debris were pelleted by centrifugation after completed lysis. The supernatants containing optically clear cytosolic fraction were each aliquoted into two tubes where each tube contained either the ligand SB590885 dissolved in DMSO or pure DMSO for control. The samples were incubated and subsequently aliquoted into 8-tube PCR strips in fractions of 50 microliters. A series of temperatures were applied to the different samples ranging between +44° C. to +62° C. with 2° C. increments and a 3 minute hold at each temperature. Following heating, the samples were cooled and the precipitated protein pelleted by centrifugation. 20 microliter of each supernatant was removed and supplemented with gel loading buffer and fully denatured by heating. The samples were loaded on a separating gel, which after full run time was blotted onto a nitrocellulose membrane. The membrane was washed and blocked with blocking reagent and probed with primary and secondary antibodies. The signal from the bound secondary antibody was detected by chemiluminescense and recorded with a CCD camera. […]

wild-type B-raf protein = wild-type B-raf protein (Homo sapiens, UniProt P15056); details: K562 lysate
Chain of wild-type B-raf protein (P15056 whole entry): as the sequence (P15056 whole entry V600E) above, with E600V counted along it
Description: as §1

[6] = target: methionine-aminopeptidase-2 (Homo sapiens, UniProt P50579); assay: Thermal shift in human K562 cell lysate, Western blot; format: binding
Chain of methionine-aminopeptidase-2 (Homo sapiens, UniProt P50579) (P50579 whole entry): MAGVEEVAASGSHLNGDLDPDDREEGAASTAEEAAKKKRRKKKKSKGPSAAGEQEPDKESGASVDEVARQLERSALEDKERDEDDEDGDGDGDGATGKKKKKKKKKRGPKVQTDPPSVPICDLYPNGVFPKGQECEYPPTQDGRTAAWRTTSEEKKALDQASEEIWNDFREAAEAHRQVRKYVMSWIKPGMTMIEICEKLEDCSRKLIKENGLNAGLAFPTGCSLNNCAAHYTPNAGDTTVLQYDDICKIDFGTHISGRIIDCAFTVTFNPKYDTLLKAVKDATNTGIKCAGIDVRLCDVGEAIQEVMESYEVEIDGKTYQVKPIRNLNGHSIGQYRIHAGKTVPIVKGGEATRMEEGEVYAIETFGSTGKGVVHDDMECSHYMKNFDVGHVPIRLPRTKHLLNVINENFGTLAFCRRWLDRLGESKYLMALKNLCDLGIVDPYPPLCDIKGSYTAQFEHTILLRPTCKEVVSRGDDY
Description: (§2) Studies were done on cells from two different systems: a) intact cow liver biopsies incubated with TNP-470 and b) human cultured cells incubated with TNP-470. […] After treatment with or without the inhibitor, the samples were prepared and subjected to an array of increasing temperatures. The precipitated protein fraction was pelleted by means of centrifugation and the supernatant from each temperature step was analysed on gels and by Western blot. Melting temperatures of proteins treated with TNP-470 were compared to those of untreated samples.
(§3) Lysate was prepared for cultured human cells (K562) and cow liver samples by disruption on ice in hypotonic buffer and with homogenisation. The suspensions were freeze-thawed multiple times and all insoluble aggregates and cell debris were pelleted by centrifugation after completed lysis. The lysate of each cell type was divided into two aliquots, where one was supplemented with TNP-470 (dissolved in pure DMSO) and the other with an equivalent volume of pure DMSO. […]
(§4) Next, a series of temperatures were applied to different samples ranging between +56° C. to +88° C. with 2 or 4° C. increments and a 3 minute hold at each step. […] The signal from the bound secondary antibody was detected by chemiluminescense and recorded with a CCD camera. […]

[7] = target: T3, methionine-aminopeptidase-2 (Bos taurus, UniProt Q3ZC89); assay: Thermal shift in cow liver lysate, Western blot; format: binding
T3 construct: Lysate was prepared for cultured human cells (K562) and cow liver samples; from tissue; host or cells: cow liver
T3 sequence (Q3ZC89 whole entry): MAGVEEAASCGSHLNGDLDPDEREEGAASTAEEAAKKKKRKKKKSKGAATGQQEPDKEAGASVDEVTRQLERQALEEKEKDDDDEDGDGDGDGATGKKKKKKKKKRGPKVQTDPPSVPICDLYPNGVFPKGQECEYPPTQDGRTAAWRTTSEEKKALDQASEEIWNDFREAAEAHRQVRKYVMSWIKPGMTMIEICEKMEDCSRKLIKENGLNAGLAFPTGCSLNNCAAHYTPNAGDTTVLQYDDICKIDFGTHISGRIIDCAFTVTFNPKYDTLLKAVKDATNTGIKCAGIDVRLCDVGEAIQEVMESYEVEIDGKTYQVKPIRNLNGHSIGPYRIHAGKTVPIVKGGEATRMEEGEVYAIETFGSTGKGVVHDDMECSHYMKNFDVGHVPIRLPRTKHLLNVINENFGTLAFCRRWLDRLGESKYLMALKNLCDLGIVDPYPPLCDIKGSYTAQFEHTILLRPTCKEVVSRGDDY
Description: as §2, §3, §4

[8] = target: T4, thymidylate synthase (TS) (Homo sapiens, UniProt P04818); assay: Thermal shift in A549 cell lysate, Western blot, TS; format: binding; details: ligand at 10 times the described IC50
T4 construct: Lysate was prepared from cultured human adenocarcinoma cells (A549); endogenous in cells; host or cells: A549
T4 sequence (P04818 2-313 limits assumed): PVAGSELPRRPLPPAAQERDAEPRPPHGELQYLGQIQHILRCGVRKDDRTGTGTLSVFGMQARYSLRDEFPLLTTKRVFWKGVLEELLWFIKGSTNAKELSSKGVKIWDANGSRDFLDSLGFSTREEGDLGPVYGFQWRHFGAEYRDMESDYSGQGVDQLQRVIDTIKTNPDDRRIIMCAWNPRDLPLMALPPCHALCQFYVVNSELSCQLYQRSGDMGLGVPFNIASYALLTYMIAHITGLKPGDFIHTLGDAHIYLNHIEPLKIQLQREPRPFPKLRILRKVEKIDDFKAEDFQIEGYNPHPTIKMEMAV
From the text: Cells were disrupted on ice in hypotonic buffer and with homogenisation. The suspensions were freeze-thawed multiple times and all insoluble aggregates and cell debris were pelleted by centrifugation after completed lysis.
The signal from the bound secondary antibody was detected by chemiluminescense and recorded with a CCD camera. The intensities were plotted to visualize the changes in melting temperature following ligand treatment.

T1 sequence (Q16539 whole entry): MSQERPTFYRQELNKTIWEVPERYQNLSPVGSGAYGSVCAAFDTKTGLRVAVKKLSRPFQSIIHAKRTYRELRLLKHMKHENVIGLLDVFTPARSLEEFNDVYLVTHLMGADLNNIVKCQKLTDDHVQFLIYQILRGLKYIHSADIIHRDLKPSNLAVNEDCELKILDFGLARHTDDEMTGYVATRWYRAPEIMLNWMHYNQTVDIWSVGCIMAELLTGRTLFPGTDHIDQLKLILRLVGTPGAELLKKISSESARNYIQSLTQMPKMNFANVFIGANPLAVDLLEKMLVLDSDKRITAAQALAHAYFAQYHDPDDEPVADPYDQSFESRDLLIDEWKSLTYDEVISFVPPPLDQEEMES

## Cn1c(NC[C@@H](N)Cc2ccccc2)nc(-c2ccncc2)c(-c2ccc3ccccc3c2)c1=O [AMG-548]
p38α [1]; AlphaScreen detection, no inhibitor 46.7±0.7
  apparent Tagg value (average±s.d.): 59.2±0.9 °C
p38α [1]; western blot detection, no inhibitor 48±0.8
  apparent Tagg value (average±s.d.): 60.6±1.0 °C
p38α [2]
  screen outcome (increase of the AlphaScreen signal vs DMSO-only controls): stabilizing hits

## Oc1cccc(-c2nc(N3CCOCC3)c3sccc3n2)c1 [Compound 15e, 3-[4-(4-Morpholinyl)thieno[3,2-d]pyrimidin-2-yl]-phenol]
[3]
  melting temperature after addition of inhibitor: ~58 °C

## Cc1cnc(Nc2ccc(F)cc2Cl)nc1-c1c[nH]c(C(=O)N[C@H](CO)c2cccc(Cl)c2)c1 [ERK 11e]
p38α [1]; 20 μM
  shift of the apparent Tagg (response): lack of a substantial response
p38α [4]
  thermal stabilization of p38α within the tested concentration range: did not result in any stabilization
p38α [2]
  screen outcome (increase of the AlphaScreen signal vs DMSO-only controls): cannot be distinguished from the rest of the inactive compounds

## CN(C)CCOc1ccc(-c2nc(-c3ccncc3)c(-c3ccc4c(c3)CC/C4=N\O)[nH]2)cc1 [SB590885]
[5]
  increase in the melting temperature: ~6 °C
wild-type B-raf protein
  increase in the melting temperature: 3 °C

## CO[C@@H]1[C@H](OC(=O)NC(=O)CCl)CC[C@]2(CO2)[C@H]1[C@@]1(C)O[C@@H]1CC=C(C)C [TNP-470]
[6]
  shift in melting temperature: 18 °C
[6]; without ligand 62° C.
  melting temperature after addition of ligand: 80 °C
[7]
  shift in melting temperature: 14 °
[7]; without ligand 66° C.
  melting temperature after addition of ligand: 80 °C

## Cc1nc2ccc(CN(C)c3ccc(C(=O)N[C@@H](CCC(=O)O)C(=O)O)s3)cc2c(=O)[nH]1 [raltitrexed]
[8]
  change of melting temperature of TS: increased melting temperature
